Measurements taken from patent US20240409536A1, “COMPOUNDS AND METHODS FOR MODULATING SPLICING” (REMIX THERAPEUTICS INC., priority 2021, published 2024).
Where a name gives a salt, the structure may show the parent alone.

Tests used:
Target C = assay: HiBiT protein abundance assay, Target C (K562 HiBiT knock-in cells); assay type: cell-based, human; conditions: 24 hours
Procedure: (§1) • Promega Nano-Glo HiBiT Lytic Detection System (cat #N3030) • Corning 384-well TC-treated microplates (cat #3570) • Synthego Engineered Cells Knock-In Clones
(§2) Cells were maintained in IMDM with 10% FBS. Before the assay, cells were diluted with […] growth media (IMDM+1% FBS media) and were seeded in a 384-well plate at a density of 10000 cells/well (for each cell line listed in Table 6). Each compound was prepared as a 10-point 3-fold serial dilution in DMSO with the top dose at a final concentration of 10 μM in the well. Unmodified K562 cells were added at the previously specified density with DMSO to serve as an assay baseline and positive control (PC) and DMSO only with the respective modified cell lines was added to the negative control (NC) columns. Final DMSO concentration was kept at or below 0.25%. Treated cell plates were placed in an incubator at 37° C. with 5% CO2 for 24 hours. After 24 hours, 25 μL of Complete HiBit Lytic reagent was added to each well at room temperature (e.g. one plate requiring 10 mL Lytic Buffer, 100 μL LgBiT Protein, 200 μL Lytic Substrate), shaken for 5 minutes at 600 RPM, then left to sit for 10 minutes for signal to stabilize before reading on a Spark Cyto plate reader (Tecan) with a 500 ms measurement time.
(§3) To determine compound effects on protein abundance of each target in Table 6, the percent response for each respective cell line was calculated at each compound concentration as follows:
(§4) For the normalized response at each concentration, a four-parameter logistical regression was fit to the data and the response was interpolated at the 50% value to determine a concentration for protein abundance at 50% (IC50) the untreated control.

K562 cells = assay: Cell Titer Glo 2.0 cell viability assay in K562 cells; conditions: 72 hours
HiBiT-tagged MYB protein = assay: HiBiT protein abundance assay, MYB (K562 HiBiT knock-in cells); assay type: cell-based, human; conditions: 24 hours
Procedure: (§5) Compounds described herein were used to screen for effects on quantitative protein abundance using a HiBit assay system (Promega). Quantitative protein abundance was determined by measuring the protein levels of HiBit-tagged protein targets expressed in cell culture via luminescence using the Nano-Glo HiBiT Lytic Detection System, which uses a split complementation assay format to reconstitute NanoBiT enzyme to generate a luminescent signal. A protein abundance assay was developed such that endogenous protein targets could be modified with the HiBiT peptide tag and their abundance could be assessed after compound treatment. Briefly, K562 cell lines containing a HiBiT-modification were treated with various compounds described herein (e.g., compounds of Formulas (I), (II), or (III)). After treatment for 24 hours, the protein abundance of a specific target was determined by measuring luminescence.
as §1, §2, §3, §4

HiBiT-tagged HTT protein = assay: HiBiT protein abundance assay, HTT (K562 HiBiT knock-in cells); assay type: cell-based, human; conditions: 24 hours
Procedure: as §5, §1, §2, §3, §4

MYB mRNA = assay: Splicing RT-qPCR assay, MYB canonical (CJ) and alternative (AJ) junction mRNA; assay type: cell-based; conditions: Homo sapiens, A673 or K562 cells, 24 hours
How it was run: (§6)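 Canonical and alternative junction mRNAs measured by cell-lysate one-step RT-qPCR, normalized to PPIA in A673 or GAPDH/GUSB in K562. Cells received compound for 24 h at 37 °C, 5% CO2, 11-point 3-fold series from 10 uM final top dose, DMSO at most 0.25%.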

HTT mRNA = assay: Splicing RT-qPCR assay, HTT canonical (CJ) and alternative (AJ) junction mRNA; assay type: cell-based; conditions: Homo sapiens, A673 or K562 cells, 24 hours
How it was run: as §6

[1] = decrease in canonical junction mRNA
[2] = increase in alternative junction mRNA

| SMILES | IC50 (Target C) [µM] | Viability (K562 cells) | IC50 (HiBiT-tagged MYB protein) [µM] | IC50 (HiBiT-tagged HTT protein) [µM] | IC50 (MYB mRNA; [1]) [µM] | AC50 (MYB mRNA; [2]) [µM] | IC50 (HTT mRNA; [1]) [µM] | AC50 (HTT mRNA; [2]) [µM] |
| --- | --- | --- | --- | --- | --- | --- | --- | --- |
| Cc1cn2cc(NC(=O)c3ccc(C4CCNCC4)c4ccnnc34)cc(F)c2n1 [Compound 103] | 1 to 10 | A (A represents <100 nM) | < 0.1 | 0.1 to 1 |  |  |  |  |
| COc1cnc2c(C(=O)Nc3cc(F)c4nc(C)cn4c3)ccc(N3CCC(N(C)C)CC3)c2n1 [Compound 224, 8-[4-(dimethylamino)piperidin-1-yl]-N-{8-fluoro-2-methylimidazo[1,2-a]pyridin-6-yl}-2-methoxyquinoxaline-5-carboxamide] | > 10 | B (B represents 100-1000 nM) | < 0.1 | > 10 |  |  |  |  |
| Cc1cn2cc(NC(=O)c3ccc(N4CCC(N(C)C)CC4)c4nccnc34)cc(F)c2n1 [Compound 158, 8-(4-(dimethylamino)piperidin-1-yl)-N-(8-fluoro-2-methylimidazo[1,2-a]pyridin-6-yl)quinoxaline-5-carboxamide] | 1 to 10 | B (B represents 100-1000 nM) | 0.1 to 1 | 0.1 to 1 |  |  |  |  |
| Cc1ccc2c(N3CCC4(CCN4)CC3)ccc(C(=O)Nc3cc(F)c4nc(C)cn4c3)c2n1 [Compound 195, 5-{1,7-diazaspiro[3.5]nonan-7-yl}-N-{8-fluoro-2-methylimidazo[1,2-a]pyridin-6-yl}-2-methylquinoline-8-carboxamide] | 0.1 to 1 | A (A represents <100 nM) | < 0.1 | 0.1 to 1 |  |  |  |  |
| Cc1cn2cc(NC(=O)c3ccc(N4CCNCC4)c4cncnc34)cc(F)c2n1 [Compound 112] | 1 to 10 | B (B represents 100-1000 nM) | < 0.1 | 0.1 to 1 |  |  |  |  |
| Cc1cn2nc(NC(=O)c3ccc(N4CCNCC4)c4ccnnc34)nc2c(C)n1 [Compound 122] | 1 to 10 | C (C represents 1000-9999 nM) | 1 to 10 | 1 to 10 |  |  |  |  |
| CN[C@H]1CCN(c2ccc(C(=O)Nc3cc(F)c4nc(C)cn4c3)c3nc(OC)cnc23)C1 [Compound 203, (S)—N-{8-fluoro-2-methylimidazo[1,2-a]pyridin-6-yl}-3-methoxy-8-[3-(methylamino)pyrrolidin-1-yl]quinoxaline-5-carboxamide; trifluoroacetic acid] | 1 to 10 | C (C represents 1000-9999 nM) | 1 to 10 | 1 to 10 |  |  |  |  |
| Cc1nc2c(F)cc(NC(=O)c3ccc(N4CCNCC4)c4ccnnc34)cc2o1 [Compound 117] | 1 to 10 | B (B represents 100-1000 nM) | < 0.1 | 0.1 to 1 |  |  |  |  |
| Cc1cn2cc(NC(=O)c3ccc(N4CCC5(CCN5)CC4)c4ccnnc34)cc(F)c2n1 [Compound 171, 5-{1,7-diazaspiro[3.5]nonan-7-yl}-N-{8-fluoro-2-methylimidazo[1,2-a]pyridin-6-yl}cinnoline-8-carboxamide trifluoroacetate] | 1 to 10 | B (B represents 100-1000 nM) | < 0.1 | 0.1 to 1 |  |  |  |  |
| Cc1cn2cc(NC(=O)c3ccc(N4CCN[C@H](C)C4)c4nccnc34)cc(F)c2n1 [Compound 188, N-{8-fluoro-2-methylimidazo[1,2-a]pyridin-6-yl}-8-(3-methylpiperazin-1-yl)quinoxaline-5-carboxamide] | 1 to 10 | B (B represents 100-1000 nM) | < 0.1 | 1 to 10 |  |  |  |  |
| Cc1cnc2c(C(=O)Nc3cc(F)c4nc(C)cn4c3)ccc(N3CCNCC3)c2n1 [Compound 198] | 0.1 to 1 | B (B represents 100-1000 nM) | 0.1 to 1 | 0.1 to 1 |  |  |  |  |
| Cc1cn2cc(NC(=O)c3ccc(N4CCNCC4)c4ccnnc34)cc(Cl)c2n1 [Compound 124] | 1 to 10 | B (B represents 100-1000 nM) | < 0.1 | 1 to 10 |  |  |  |  |
| Cc1cn2cc(NC(=O)c3ccc(N4CCNC(C)C4)c4nccnc34)cc(F)c2n1 (centres unmarked) [Compound 157] | 1 to 10 | A (A represents <100 nM) | < 0.1 | 1 to 10 |  |  |  |  |
| Cc1cn2cc(NC(=O)c3ccc(N4CCNCC4)c4ccnnc34)cc(F)c2n1 [Compound 101] | 0.1 to 1 | B (B represents 100-1000 nM) | < 0.1 | 0.1 to 1 |  |  |  |  |
| Cc1cn2cc(NC(=O)c3ccc(N4CCN[C@@H](CO)C4)c4nccnc34)cc(F)c2n1 [Compound 361] | 1 to 10 | B (B represents 100-1000 nM) | 0.1 to 1 | 1 to 10 | 0.1 to 1 | < 0.1 | 1 to 10 | 1 to 10 |
| CCNC1CCN(c2ccc(C(=O)Nc3cc(F)c4nc(C)cn4c3)c3nnccc23)CC1 [Compound 139, 5-[4-(ethylamino)piperidin-1-yl]-N-{8-fluoro-2-methylimidazo[1,2-a]pyridin-6-yl}cinnoline-8-carboxamide] | 1 to 10 | A (A represents <100 nM) | < 0.1 | 0.1 to 1 |  |  |  |  |
